{"source": "patent US6410250B1", "about": "(priority 1996, dated 2002)", "key": {"[1]": {"test": "In vivo rescue of dhfr-ts- phenotype with thymidine osmotic pumps", "design": "species or system mice", "conditions": "continuous thymidine supplementation"}, "[2]": {"tested_on": "Starch-elicited peritoneal macrophages", "test": "Infection of starch-elicited peritoneal macrophages in vitro", "format": "cell-based, mouse", "conditions": "thymidine 100 μg/ml added to the medium"}, "[3]": {"tested_on": "draining lymph node cells", "format": "cell-based, mouse"}, "[4]": {"tested_on": "L. major", "test": "Growth of L. major promastigotes in liquid medium with drug", "format": "cell-based, Leishmania major"}}, "note": "Entries after “also recorded” stand apart in the source; their conditions may differ.", "data": [{"molecule": "Cc1cn([C@H]2C[C@H](O)[C@@H](CO)O2)c(=O)[nH]c1=O", "note": "[thymidine]", "values": [{"measurement": "restoration of animal infectivity of dhfr-ts^− by thymidine supplementation", "setting": "[1]", "value": "partially restored; also recorded: partially restore infectivity"}, {"measurement": "effect of thymidine on dhfr-ts^− in macrophages", "setting": "[2]", "value": "restored both survival and replication"}]}, {"molecule": "bacillus Calmette-Guerin", "values": [{"measurement": "proliferation as [3H]thymidine incorporation", "setting": "[3]", "value": "1100±1000", "unit": "cpm"}]}, {"molecule": "CN(Cc1cnc2nc(N)nc(N)c2n1)c1ccc(C(=O)N[C@@H](CCC(=O)O)C(=O)O)cc1", "note": "[MTX, methotrexate]", "values": [{"measurement": "EC50", "setting": "[4]; Leishmania major, wild-type or heterozygous (+/HYG) cells, liquid media, read-out: concentration of MTX required to inhibit cell growth by 50% (EC50)", "value": "~1000", "unit": "nM"}, {"measurement": "growth in presence of MTX", "setting": "[4]; dhfr-ts^− NEO/HYG knockout, 100 μM MTX, liquid media", "value": "grew well"}]}, {"molecule": "CN[C@H]1C[C@@H](N)[C@H](O)[C@@H](O[C@@H]2O[C@H](CO)[C@H](O)[C@@H]3OC4(O[C@H]23)O[C@H]([C@@H](N)CO)[C@H](O)[C@H](O)[C@H]4O)[C@@H]1O", "note": "(stereo partly shown) [hygromycin B]", "values": [{"measurement": "hygromycin B concentration resulting in a 50% reduction in growth", "setting": "[4]; +/HYG line", "value": 200, "unit": "μg per ml"}]}, {"molecule": "ovalbumin (protein, UniProt P01012 2-386, looked up, antigen preparation used as specificity control in lymph node proliferation assay) Ovalbumin: GSIGAASMEFCFDVFKELKVHHANENIFYCPIAIMSALAMVYLGAKDSTRTQINKVVRFDKLPGFGDSIEAQCGTSVNVHSSLRDILNQITKPNDVYSFSLASRLYAEERYPILPEYLQCVKELYRGGLEPINFQTAADQARELINSWVESQTNGIIRNVLQPSSVDSQTAMVLVNAIVFKGLWEKAFKDEDTQAMPFRVTEQESKPVQMMYQIGLFRVASMASEKMKILELPFASGTMSMLVLLPDEVSGLEQLESIINFEKLTEWTSSNVMEERKIKVYLPRMKMEEKYNLTSVLMAMGITDVFSSSANLSGISSAESLKISQAVHAAHAEINEAGREVVGSAEAGVDAASVSEEFRADHPFLFCIKHIATNAVLFFGRCVSP", "values": [{"measurement": "proliferation as [3H]thymidine incorporation", "setting": "[3]", "value": "2600±1100", "unit": "cpm"}]}]}
